Results on one substance are retold here after patent US9453226B2, “Protection of cells from Alu-RNA-induced degeneration and inhibitors for protecting cells” (UNIVERSITY OF KENTUCKY RESEARCH FOUNDATION, priority 2011, dated 2016).

The test has as its system IL-18. The test is described as follows: IL-18 maturation in RPE cell lysates of wild-type mice (Western blot). The format is in vivo. As to conditions: WT mice, peptide intravitreous. The method, then: siRNAs formulated in siRNA buffer (20 mM KCL, 0.2 mM MgCl2 in HEPES buffer at pH 7.5; Dharmacon) or phosphate buffered saline (PBS; Sigma-Aldrich); the TLR4 antagonist Ultra Pure Rhodobacter sphaeroides LPS (LPS-RS, InvivoGen), a peptide inhibitor of MyD88 homodimerization IMG-2005 (IMGENEX), control inhibitor (IMGENEX), recombinant IL-18 (Medical & Biological Laboratories), neutralizing rat antibodies against mouse IL-1β (IMGENEX), neutralizing rat antibodies against mouse IL-18 (Medical & Biological Laboratories), isotype control IgGs (R&D Systems or eBioscience as appropriate), Caspase-1 inhibitor Z-WEHD-FMK (R&D Systems), Caspase control inhibitor Z-FA-FMK (R&D Systems), DPI (Enzo Life Sciences), Mito-TEMPO (Enzo Life Sciences), MitoQ and dTPP (both adsorbed to cyclodextrin and provided by M.P. Murphy, MRC Mitochondrial Biology Unit), and gp91ds-tat and scrambled gp91 ds-tat (both Anaspec), were dissolved in phosphate buffered saline (PBS; Sigma-Aldrich) or dimethyl sulfoxide (DMSO; Sigma-Aldrich), and injected into the vitreous humor in a total volume of 1 μL with a 33-gauge Exmire microsyringe (Ito Corporation). […] As a control, Luc siRNA-chol (17+2 nt) was used with identical dosages. […]
Background: A western blot detects proteins with antibodies after separation by electrophoresis.

On to Z-WEHD-FMK, for which the “pAlu-induced IL-18 maturation” value is “blocked IL-18 maturation”. In addition, the “pAlu-induced IL-18 maturation” value (listed as Caspase-1 peptide inhibitor) is recorded as “impaired”.
